In the supplement of paper PMC12592484:

How the values were obtained:
Assay in all cases: drug sensitivity score (DSS2, normalised partial AUC of dose-response, 72 h CellTiter-Glo viability) (DSS (dimensionless)); higher = more sensitive (stronger growth inhibition / cytotoxicity); extreme values may be limits of the assay
[1] = system: 22Rv1
Procedure, shortened: (§1)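 Cells were added to 384-well plates already holding compounds at five doses over a 10,000-fold range: low-passage primary prostate cancer-associated fibroblasts, PF179T, WPMY-1, LNCaP and 22Rv1. Viability was measured 72 h later by CellTiter-Glo 2.0 luminescence and scaled to vehicle and positive-control wells. The drug sensitivity score, computed in BREEZE, is a partial area under the fitted logistic dose–response curve divided by the log of its upper asymptote, with higher scores meaning greater sensitivity.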

[2] = system: CAF#1 (primary prostate cancer-associated fibroblasts of myCAF-like type)
Procedure, shortened: as §1

[3] = system: CAF#2 (primary prostate cancer-associated fibroblasts of iCAF-like type)
Procedure, shortened: as §1

[4] = system: CAF#3 (primary prostate cancer-associated fibroblasts of myCAF-like type)
Procedure, shortened: as §1

[5] = system: CAF#4 (primary prostate cancer-associated fibroblasts of iCAF-like type)
Procedure, shortened: as §1

[6] = system: CAF#5 (primary prostate cancer-associated fibroblasts of myCAF-like type)
Procedure, shortened: as §1

[7] = system: CAF#6 (primary prostate cancer-associated fibroblasts of iCAF-like type)
Procedure, shortened: as §1

[8] = system: CAF#7 (primary prostate cancer-associated fibroblasts of myCAF-like type)
Procedure, shortened: as §1

[9] = system: LNCAP
Procedure, shortened: as §1

[10] = system: PF179T
Procedure, shortened: as §1

[11] = system: WPMY-1
Procedure, shortened: as §1

FC(F)(F)c1ccc(/C=C/c2nc(COc3ccc(CCCCn4ccnn4)cc3)co2)cc1 [Mubritinib] (tested concentration range 0.1-1000 nM)
drug sensitivity score [1]: 5.8
drug sensitivity score [2]: 0
drug sensitivity score [3]: 0
drug sensitivity score [4]: 0
drug sensitivity score [5]: 0
drug sensitivity score [6]: 0
drug sensitivity score [7]: 0
drug sensitivity score [8]: 0
drug sensitivity score [9]: 11.7
drug sensitivity score [10]: 9.7
drug sensitivity score [11]: 12

CON(C)C(=O)N1N=C(c2cc(F)ccc2F)S[C@@]1(CCCN)c1ccccc1 [Filanesib] (tested concentration range 0.1-1000 nM)
drug sensitivity score [1]: 21.3
drug sensitivity score [2]: 0.2
drug sensitivity score [3]: 17.7
drug sensitivity score [4]: 3.2
drug sensitivity score [5]: 6
drug sensitivity score [6]: 3.9
drug sensitivity score [7]: 2.6
drug sensitivity score [8]: 2.6
drug sensitivity score [9]: 29.5
drug sensitivity score [10]: 13
drug sensitivity score [11]: 22

COc1cc(C)c(/C=C/C(C)=C/C=C/C(C)=C/C(=O)O)c(C)c1C [Acitretin] (tested concentration range 1-10000 nM)
drug sensitivity score [1]: 0
drug sensitivity score [2]: 1.7
drug sensitivity score [3]: 4
drug sensitivity score [4]: 0.2
drug sensitivity score [5]: 0.1
drug sensitivity score [6]: 0.8
drug sensitivity score [7]: 0.4
drug sensitivity score [8]: 0
drug sensitivity score [9]: 0
drug sensitivity score [10]: 6.3
drug sensitivity score [11]: 0

CNC(=O)c1cccc2cc(Oc3ccnc4cc(OCC5(N)CC5)c(OC)cc34)ccc12 [Lucitanib] (tested concentration range 1-10000 nM)
drug sensitivity score [1]: 1.8
drug sensitivity score [2]: 6
drug sensitivity score [3]: 5.9
drug sensitivity score [4]: 6.3
drug sensitivity score [5]: 7.4
drug sensitivity score [6]: 3.9
drug sensitivity score [7]: 6.6
drug sensitivity score [8]: 13.5
drug sensitivity score [9]: 3.4
drug sensitivity score [10]: 5.7
drug sensitivity score [11]: 2.8

C=CC(=O)N1CC/C(=C\c2ccc(F)c([N+](=O)[O-])c2)C(=O)/C(=C/c2ccc(F)c([N+](=O)[O-])c2)C1 [VLX1570] (tested concentration range 1-10000 nM)
drug sensitivity score [1]: 26.9
drug sensitivity score [2]: 26.9
drug sensitivity score [3]: 29.7
drug sensitivity score [4]: 17.3
drug sensitivity score [5]: 28
drug sensitivity score [6]: 25.1
drug sensitivity score [7]: 17.5
drug sensitivity score [8]: 19.5
drug sensitivity score [9]: 21.4
drug sensitivity score [10]: 22.2
drug sensitivity score [11]: 29.3

O=C(c1cccc(Cl)c1F)N1CCN(Cc2cccc(Nc3nccs3)n2)CC1 [MK-8745] (tested concentration range 1-10000 nM)
drug sensitivity score [1]: 4
drug sensitivity score [2]: 2.6
drug sensitivity score [3]: 4.3
drug sensitivity score [4]: 6.8
drug sensitivity score [5]: 1.1
drug sensitivity score [6]: 2.8
drug sensitivity score [7]: 3.4
drug sensitivity score [8]: 2.6
drug sensitivity score [9]: 14.7
drug sensitivity score [10]: 5
drug sensitivity score [11]: 7.6

CN(C)Cc1ccc(S(=O)(=O)n2ccc(/C=C/C(=O)NO)c2)cc1 [Resminostat] (tested concentration range 1-10000 nM)
drug sensitivity score [1]: 12.3
drug sensitivity score [2]: 4.4
drug sensitivity score [3]: 5.9
drug sensitivity score [4]: 6
drug sensitivity score [5]: 6
drug sensitivity score [6]: 4.6
drug sensitivity score [7]: 5.9
drug sensitivity score [8]: 4.7
drug sensitivity score [9]: 12.2
drug sensitivity score [10]: 6
drug sensitivity score [11]: 13.6

CN(C)C[C@@H]1CCn2cc(c3ccccc32)C2=C(C(=O)NC2=O)c2cn(c3ccccc23)CCO1 [Ruboxistaurin] (tested concentration range 1-10000 nM)
drug sensitivity score [1]: 9.6
drug sensitivity score [2]: 8.4
drug sensitivity score [3]: 6.6
drug sensitivity score [4]: 8.9
drug sensitivity score [5]: 8.4
drug sensitivity score [6]: 6.8
drug sensitivity score [7]: 6.8
drug sensitivity score [8]: 5.9
drug sensitivity score [9]: 8.2
drug sensitivity score [10]: 8.4
drug sensitivity score [11]: 8.4

CN(C)C(=N)NC(=N)N [Metformin] (tested concentration range 10-100000 nM)
drug sensitivity score [1]: 0
drug sensitivity score [2]: 0
drug sensitivity score [3]: 0
drug sensitivity score [4]: 0
drug sensitivity score [5]: 0
drug sensitivity score [6]: 0
drug sensitivity score [7]: 0
drug sensitivity score [8]: 0
drug sensitivity score [9]: 0
drug sensitivity score [10]: 0
drug sensitivity score [11]: 0

C[C@H]1C[C@@H](n2c(Nc3ccc(OC(F)(F)F)cc3)nc3cc(CCC(=O)O)ccc32)CC(C)(C)C1 (tested concentration range 1-10000 nM)
drug sensitivity score [1]: 0
drug sensitivity score [2]: 0
drug sensitivity score [3]: 0
drug sensitivity score [4]: 0
drug sensitivity score [5]: 0
drug sensitivity score [6]: 0
drug sensitivity score [7]: 0
drug sensitivity score [8]: 0
drug sensitivity score [9]: 0.4
drug sensitivity score [10]: 0
drug sensitivity score [11]: 0

Nc1ccccc1NC(=O)c1ccc(CNc2nccc(-c3cccnc3)n2)cc1 [Mocetinostat] (tested concentration range 1-10000 nM)
drug sensitivity score [1]: 14.1
drug sensitivity score [2]: 9.4
drug sensitivity score [3]: 11.3
drug sensitivity score [4]: 9.2
drug sensitivity score [5]: 8.4
drug sensitivity score [6]: 11.8
drug sensitivity score [7]: 7.7
drug sensitivity score [8]: 9.4
drug sensitivity score [9]: 13.3
drug sensitivity score [10]: 13.5
drug sensitivity score [11]: 12

CCn1c(-c2nonc2N)nc2c(C#CC(C)(C)O)ncc(OC[C@H]3CCCNC3)c21 (tested concentration range 1-10000 nM)
drug sensitivity score [1]: 5.4
drug sensitivity score [2]: 3.8
drug sensitivity score [3]: 3.3
drug sensitivity score [4]: 0
drug sensitivity score [5]: 1.2
drug sensitivity score [6]: 1.6
drug sensitivity score [7]: 0
drug sensitivity score [8]: 0
drug sensitivity score [9]: 25.7
drug sensitivity score [10]: 1.9
drug sensitivity score [11]: 0

COc1cccc2c1C(=O)c1c(O)c3c(c(O)c1C2=O)C[C@@](O)(C(=O)CO)C[C@@H]3O[C@H]1C[C@H](N)[C@@H](O)[C@H](C)O1 [Epirubicin] (tested concentration range 0.1-1000 nM)
drug sensitivity score [1]: 10.1
drug sensitivity score [2]: 4.8
drug sensitivity score [3]: 6.2
drug sensitivity score [4]: 3.7
drug sensitivity score [5]: 2.8
drug sensitivity score [6]: 4.4
drug sensitivity score [7]: 7
drug sensitivity score [8]: 7.9
drug sensitivity score [9]: 15.7
drug sensitivity score [10]: 6.7
drug sensitivity score [11]: 9.5

CC(C)c1cc(C(=O)N2Cc3ccc(CN4CCN(C)CC4)cc3C2)c(O)cc1O [Onalespib] (tested concentration range 0.2-2500 nM)
drug sensitivity score [1]: 18
drug sensitivity score [2]: 10
drug sensitivity score [3]: 12.1
drug sensitivity score [4]: 11.8
drug sensitivity score [5]: 7.8
drug sensitivity score [6]: 8.6
drug sensitivity score [7]: 10.5
drug sensitivity score [8]: 11.2
drug sensitivity score [9]: 18.2
drug sensitivity score [10]: 11.6
drug sensitivity score [11]: 21.1

COc1nc(N)nc2c1ncn2[C@@H]1O[C@H](CO)[C@@H](O)[C@@H]1O [Nelarabine] (tested concentration range 1-10000 nM)
drug sensitivity score [1]: 0
drug sensitivity score [2]: 0
drug sensitivity score [3]: 0
drug sensitivity score [4]: 0
drug sensitivity score [5]: 0
drug sensitivity score [6]: 0
drug sensitivity score [7]: 0
drug sensitivity score [8]: 0
drug sensitivity score [9]: 0
drug sensitivity score [10]: 0
drug sensitivity score [11]: 0

C[C@@H]1CN(C(=O)c2ccc(NC(=O)c3cc(O[C@H](C)c4c(Cl)ccc(F)c4Cl)c(N)nn3)cc2)C[C@H](C)N1 [Ensartinib] (tested concentration range 0.1-1000 nM)
drug sensitivity score [1]: 2.1
drug sensitivity score [2]: 2.2
drug sensitivity score [3]: 3.1
drug sensitivity score [4]: 2.7
drug sensitivity score [5]: 0.7
drug sensitivity score [6]: 4.1
drug sensitivity score [7]: 2.2
drug sensitivity score [8]: 0.8
drug sensitivity score [9]: 1.4
drug sensitivity score [10]: 2.3
drug sensitivity score [11]: 3

COc1cc2c(cc1OCCCN1CCCC1)N=C(N)C21CCC1 [A-366] (tested concentration range 2.5-25000 nM)
drug sensitivity score [1]: 6.7
drug sensitivity score [2]: 0
drug sensitivity score [3]: 0
drug sensitivity score [4]: 0.7
drug sensitivity score [5]: 0
drug sensitivity score [6]: 0
drug sensitivity score [7]: 1.5
drug sensitivity score [8]: 0
drug sensitivity score [9]: 5.6
drug sensitivity score [10]: 0.1
drug sensitivity score [11]: 4.5

C=CC(=O)N1CCC(Oc2cc3c(Nc4ccc(Cl)c(Cl)c4F)ncnc3cc2OC)CC1 [Poziotinib] (tested concentration range 0.1-1000 nM)
drug sensitivity score [1]: 0.5
drug sensitivity score [2]: 0
drug sensitivity score [3]: 0
drug sensitivity score [4]: 0.3
drug sensitivity score [5]: 0
drug sensitivity score [6]: 0
drug sensitivity score [7]: 0
drug sensitivity score [8]: 0
drug sensitivity score [9]: 3.9
drug sensitivity score [10]: 0
drug sensitivity score [11]: 1

CCN1CCN(Cc2ccc(Nc3ncc(F)c(-c4cc(F)c5nc(C)n(C(C)C)c5c4)n3)nc2)CC1 [Abemaciclib] (tested concentration range 0.2-2500 nM)
drug sensitivity score [1]: 11
drug sensitivity score [2]: 0
drug sensitivity score [3]: 5.6
drug sensitivity score [4]: 0
drug sensitivity score [5]: 0.2
drug sensitivity score [6]: 0
drug sensitivity score [7]: 0.1
drug sensitivity score [8]: 0
drug sensitivity score [9]: 8.7
drug sensitivity score [10]: 0.6
drug sensitivity score [11]: 6

N#Cc1ccnc(N2C(=O)CC[C@H]2C(=O)N(c2cncc(F)c2)[C@H](C(=O)NC2CC(F)(F)C2)c2ccccc2Cl)c1 [Ivosidenib] (tested concentration range 1-10000 nM)
drug sensitivity score [1]: 0
drug sensitivity score [2]: 0.7
drug sensitivity score [3]: 1.4
drug sensitivity score [4]: 0
drug sensitivity score [5]: 2
drug sensitivity score [6]: 0.3
drug sensitivity score [7]: 0
drug sensitivity score [8]: 0
drug sensitivity score [9]: 0
drug sensitivity score [10]: 0
drug sensitivity score [11]: 0.2

Nc1ccn([C@@H]2O[C@H](CO)[C@@H](O)C2(F)F)c(=O)n1 [Gemcitabine] (tested concentration range 0.1-1000 nM)
drug sensitivity score [1]: 20.9
drug sensitivity score [2]: 3.1
drug sensitivity score [3]: 10
drug sensitivity score [4]: 3.9
drug sensitivity score [5]: 8
drug sensitivity score [6]: 5.6
drug sensitivity score [7]: 4.4
drug sensitivity score [8]: 7.2
drug sensitivity score [9]: 16.4
drug sensitivity score [10]: 18
drug sensitivity score [11]: 22.5

O=C(Nc1cccnc1)N1CCC(Cc2cccc(Oc3ccc(C(F)(F)F)cn3)c2)CC1 [PF-3845] (tested concentration range 1-10000 nM)
drug sensitivity score [1]: 2.3
drug sensitivity score [2]: 0
drug sensitivity score [3]: 0
drug sensitivity score [4]: 0.2
drug sensitivity score [5]: 0
drug sensitivity score [6]: 0
drug sensitivity score [7]: 0
drug sensitivity score [8]: 0
drug sensitivity score [9]: 3.3
drug sensitivity score [10]: 3
drug sensitivity score [11]: 4.6

COc1cc(N2CCC(N3CCN(C)CC3)CC2)ccc1Nc1ncc(Cl)c(Nc2ccccc2P(C)(C)=O)n1 [Brigatinib] (tested concentration range 0.1-1000 nM)
drug sensitivity score [1]: 1.7
drug sensitivity score [2]: 4
drug sensitivity score [3]: 3.5
drug sensitivity score [4]: 3.1
drug sensitivity score [5]: 2.1
drug sensitivity score [6]: 3.6
drug sensitivity score [7]: 3.9
drug sensitivity score [8]: 3
drug sensitivity score [9]: 0
drug sensitivity score [10]: 2.2
drug sensitivity score [11]: 2.4

O=C(Nc1ccc(OC(F)(F)Cl)cc1)c1cnc(N2CC[C@@H](O)C2)c(-c2cc[nH]n2)c1 [Asciminib] (tested concentration range 0.1-1000 nM)
drug sensitivity score [1]: 0
drug sensitivity score [2]: 0.5
drug sensitivity score [3]: 0
drug sensitivity score [4]: 0
drug sensitivity score [5]: 0
drug sensitivity score [6]: 0
drug sensitivity score [7]: 0
drug sensitivity score [8]: 0
drug sensitivity score [9]: 0
drug sensitivity score [10]: 0
drug sensitivity score [11]: 0

CCOc1cc2ncc(C#N)c(Nc3ccc(OCc4ccccn4)c(Cl)c3)c2cc1NC(=O)/C=C/CN(C)C [Neratinib] (tested concentration range 0.1-1000 nM)
drug sensitivity score [1]: 2.4
drug sensitivity score [2]: 1.6
drug sensitivity score [3]: 2.1
drug sensitivity score [4]: 4.6
drug sensitivity score [5]: 2.5
drug sensitivity score [6]: 0
drug sensitivity score [7]: 3.1
drug sensitivity score [8]: 4.2
drug sensitivity score [9]: 3.6
drug sensitivity score [10]: 2.4
drug sensitivity score [11]: 2

CC(=O)Nc1ccc(C(=O)Nc2ccccc2N)cc1 [Tacedinaline] (tested concentration range 0.1-1000 nM)
drug sensitivity score [1]: 0.1
drug sensitivity score [2]: 1.8
drug sensitivity score [3]: 2.3
drug sensitivity score [4]: 3.3
drug sensitivity score [5]: 0.5
drug sensitivity score [6]: 2.5
drug sensitivity score [7]: 0
drug sensitivity score [8]: 0.6
drug sensitivity score [9]: 0.6
drug sensitivity score [10]: 0.9
drug sensitivity score [11]: 0
